From US5106407A, “Iodones and methods for antimicrobial use” (priority 1989, dated 1992)
Converted amounts (≈) assume the structure as drawn.

Assays:
[1] = system: bacteria listed in Table I, Klebsiella oxytoca, Enterobacter gergoviae, Pseudomonas putida #1, and Pseudomonas putida #2; test: hand lotion preservation test;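 further: colony count scale from 1 for no colonies up to 10 for a solid mass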
Method: Fifty gram aliquots of the latex were placed in sterile bottles and one hundred gram aliquots of the diluted cutting oil were placed in 250-mL Erlenmeyer flasks. An appropriate amount of a fresh 1 percent stock solution of (2-nitrophenyl)-iodonium 2,2-dimethyl-4,6-dioxo-1,3-dioxan-5-ylide in acetone-water was added to achieve the desired final concentrations (see Tables 5 and 6). A small portion of the respective latex or cutting oil preparation was then streaked onto Tryptic Soy Agar (TSA) petri plates using sterile cotton swabs to determine whether the preparations were sterile. If the particular preparation was sterile, it was then inoculated with an appropriate volume (0.1 mL for the latex and 0.2 mL for the cutting oil) of a mixture of equal aliquots of 24 hr cultures of each of the bacterial organisms listed in Table 1 (not the fungi and yeast). The latex samples were incubated at 30° C. and the cutting oils were agitated on a rotary shaker at room temperature. After 24 hr, all samples were again streaked on TSA. All plates were then incubated at 30° C. for 48 hr and then rated 1 to 10 according to the growth rating system described in Table 4.
The results from this first set of streaks after inoculation are listed in the columns labeled streak number 1 in Tables 5 and 6. Samples with a rating of 3 or less from streak number 1 were reinoculated as described for the first inoculation above. Samples with a rating of 4 or greater were not reinoculated. After another 24 hr all samples were again restreaked on TSA agar. The results from these second streaks were labeled streak number 2 in Tables 5 and 6. Samples were reinoculated and restreaked in this fashion for a maximum of 10 streaks. Any samples with two streaks in a row with a ten rating were not restreaked again.
The ingredients of the hand creme, hand lotion, and protein shampoo are listed in Tables 7, 8 and 9, respectively. In the cosmetic preservative procedures, the stock solution of (2-nitrophenyl)-iodonium 2,2-dimethyl-4,6-dioxo-1,3-dioxan-5-ylide) was made in dimethylformamide (DMF)/water solution. In addition to the bacteria listed in Table I, the following bacteria were also included in the inocula: Klebsiella oxytoca, Enterobacter gergoviae, Pseudomonas putida #1, and Pseudomonas putida #2.

[2] = system: Candida albicans; test: minimum inhibitory concentration (MIC), agar dilution; type: cell-based; conditions: ATCC 10231; malt yeast agar
Method: (§1) The minimum inhibitory concentration (MIC) for the compound of Example 19, i.e., (2-nitrophenyl)-iodonium 2,2-dimethyl-4,6-dioxo-1,3-dioxan-5-ylide was determined for 9 bacteria (using nutrient agar) and 5 yeast and fungi (using malt yeast agar). A one percent solution of this test compound (i.e., the compound of Example 19) was prepared in a mixture of acetone-water. Nutrient agar was prepared at pH 6.8 using deionized water according to standard Difco procedures. Malt yeast agar was prepared by adding 3 g Bacto yeast extract and 42 g Bacto Malt agar per liter of deionized water. The agar (nutrient agar when testing with bacteria and malt yeast agar when testing with yeast and fungi) was dispensed in 30 mL aliquots into 25×200 millimeter (mm) test tubes, capped and autoclaved for 15 min at 115° C. The test tubes containing the agar were cooled in a water bath until the temperature of the agar was 48° C. and then an appropriate amount of the one percent solution of the test compound was added (except in the controls where no test compound was added with the acetone-water) to the respective test tubes so that final concentrations of 500, 250, 100, 50, 25, 10, 5, 2.5, 1.0 and 0 parts per million (ppm) of the test compound in the agar were obtained. The agar solutions were each mixed and poured into individual petri plates so that each petri plate contained agar having a known concentration of test compound dispersed therein. After drying for 24 hr, the petri plates were inoculated with bacteria when the petri plates contained nutrient broth agar or with fungi and yeast when the petri plates contained malt yeast agar.
(§2) The petri plates were incubated at 30° C. for 48 hr and then read to determine if the test compound (i.e., the compound of Example 19) which was incorporated into the agar prevented growth of the respective bacteria. The minimum inhibitory concentration (MIC) for each bacteria was defined as the lowest concentration of the test compound which prevented growth of that bacteria.
(§3) The inoculation with the fungi and yeast was accomplished as follows. Cultures of fungi and yeast were incubated for 7 days on malt yeast agar at 30° C. These cultures were used to prepare suspensions by the following procedure. A suspension of each organism was prepared by adding 10 mL of sterile saline and 10 microliters […] of Triton ×100 to the slant. The sterile saline/Triton ×100 solution was then agitated with a sterile swab to suspend the microorganism grown on the slant. Each resulting suspension was diluted into sterile saline (1 part suspension: 9 parts sterile saline). […] The petri plates were incubated at 30° C. and read after 48 hr for yeast and 72 hr for fungi.

[3] = system: Penicillium chrysogenum; test: as above; type: cell-based; conditions: ATCC 9480; malt yeast agar
Method: as §1, §2, §3

[4] = system: Aspergillus niger; test: as above; type: cell-based; conditions: ATCC 16404; malt yeast agar
Method: as §1, §2, §3

[5] = system: Trichoderma viride; test: as above; type: cell-based; conditions: ATCC 8678; malt yeast agar
Method: as §1, §2, §3

Q: `CC1(C)OC(=O)[C-]([I+]c2ccccc2[N+](=O)[O-])C(=O)O1` [Example 19, (2-Nitrophenyl)-iodonium 2,2-dimethyl-4,6-dioxo-1,3-dioxan-5-ylide] was tested. Which growth rating ([1]; 10 ppm, streak 1) did it give?
A: The growth rating was 1 (0).

Q: And the growth rating ([1]; 10 ppm, streak 2)?
A: Its growth rating is 1 (0).

Q: And the growth rating ([1]; 10 ppm, streak 3)?
A: The growth rating was 2 (1-4).

Q: What about the growth rating ([1]; 10 ppm, streak 6) of the same compound?
A: The growth rating was 9.

Q: What about the growth rating ([1]; 10 ppm, streak 8) of the same compound?
A: Its growth rating is 9.

Q: And the growth rating ([1]; 10 ppm, streak 9)?
A: The growth rating was 10.

Q: What about the growth rating ([1]; 10 ppm, streak 10) of the same compound?
A: The growth rating was 10.

Q: And the growth rating ([1]; 25 ppm, streak 1)?
A: The growth rating was 1 (0).

Q: What about the growth rating ([1]; 25 ppm, streak 2) of the same compound?
A: Its growth rating is 1 (0).

Q: And the growth rating ([1]; 25 ppm, streak 3)?
A: The growth rating was 1 (0).

Q: What about the growth rating ([1]; 25 ppm, streak 4) of the same compound?
A: Its growth rating is 1 (0).

Q: What about the growth rating ([1]; 25 ppm, streak 5) of the same compound?
A: The growth rating was 1 (0).

Q: What about the growth rating ([1]; 25 ppm, streak 6) of the same compound?
A: The growth rating was 1 (0).

Q: And the growth rating ([1]; 25 ppm, streak 7)?
A: Its growth rating is 1 (0).

Q: What about the growth rating ([1]; 25 ppm, streak 8) of the same compound?
A: Its growth rating is 1 (0).

Q: And the growth rating ([1]; 25 ppm, streak 9)?
A: Its growth rating is 1 (0).

Q: And the growth rating ([1]; 25 ppm, streak 10)?
A: The growth rating was 2 (1-4).

Q: And the growth rating ([1]; 50 ppm, streak 1)?
A: Its growth rating is 1 (0).

Q: And the growth rating ([1]; 50 ppm, streak 2)?
A: The growth rating was 1 (0).

Q: What about the growth rating ([1]; 50 ppm, streak 3) of the same compound?
A: Its growth rating is 1 (0).

Q: What about the growth rating ([1]; 50 ppm, streak 4) of the same compound?
A: Its growth rating is 1 (0).

Q: And the growth rating ([1]; 50 ppm, streak 5)?
A: Its growth rating is 1 (0).

Q: What about the growth rating ([1]; 50 ppm, streak 6) of the same compound?
A: Its growth rating is 1 (0).

Q: What about the growth rating ([1]; 50 ppm, streak 7) of the same compound?
A: Its growth rating is 1 (0).

Q: And the growth rating ([1]; 50 ppm, streak 8)?
A: Its growth rating is 1 (0).

Q: What about the growth rating ([1]; 50 ppm, streak 9) of the same compound?
A: The growth rating was 1 (0).

Q: What about the growth rating ([1]; 50 ppm, streak 10) of the same compound?
A: Its growth rating is 1 (0).

Q: What about the growth rating ([1]; 100 ppm, streak 1) of the same compound?
A: The growth rating was 1 (0).

Q: What about the growth rating ([1]; 100 ppm, streak 2) of the same compound?
A: Its growth rating is 1 (0).

Q: And the growth rating ([1]; 100 ppm, streak 3)?
A: The growth rating was 1 (0).

Q: And the growth rating ([1]; 100 ppm, streak 4)?
A: Its growth rating is 1 (0).

Q: What about the growth rating ([1]; 100 ppm, streak 5) of the same compound?
A: The growth rating was 1 (0).

Q: And the growth rating ([1]; 100 ppm, streak 6)?
A: Its growth rating is 1 (0).

Q: And the growth rating ([1]; 100 ppm, streak 7)?
A: The growth rating was 1 (0).

Q: And the growth rating ([1]; 100 ppm, streak 8)?
A: Its growth rating is 1 (0).

Q: And the growth rating ([1]; 100 ppm, streak 9)?
A: The growth rating was 1 (0).

Q: What about the growth rating ([1]; 100 ppm, streak 10) of the same compound?
A: Its growth rating is 1 (0).

Q: And the MIC [2]?
A: The MIC was 100 µg/mL (≈ 256 µM).

Q: And the MIC [3]?
A: Its MIC is 100 µg/mL (≈ 256 µM).

Q: And the MIC [4]?
A: The MIC was 250 µg/mL (≈ 639 µM).

Q: And the MIC [5]?
A: Its MIC is 250 µg/mL (≈ 639 µM).
